The record followed here is patent publication US7652003B2, “Macrocyclic β-secretase inhibitors” (Schering-Plough Corporation, priority 2004, dated 2010).

The test addresses T1, sproBACE1 (soluble human BACE1) (Homo sapiens, UniProt P56817).
T1 construct: sBACE1, corresponding to amino acids 1-454; made in house; host or cells: Sf9 insect cells (baculovirus); purified from culture supernatant
Briefly: Peptide hydrolysis assay (HTRF, EuK-biotin labeled APPsw substrate). Format: biochemical. As to conditions: 7 nM sproBACE1, pH 5.0, 3 hr at 30° C. The source says:
A predicted soluble form of human BACE1 (sBACE1, corresponding to amino acids 1-454) was generated from the full length BACE1 cDNA (full length human BACE1 cDNA in pcDNA4/mycHisA construct; University of Toronto) by PCR using the advantage-GC cDNA PCR kit (Clontech, Palo Alto, Calif.). A HindIII/Pmel fragment from pcDNA4-sBACE1 myc/His was blunt ended using Klenow and subcloned into the Stu I site of pFASTBACI(A) (Invitrogen). A sBACE1 mycHis recombinant bacmid was generated by transposition in DH10Bac cells(GIBCO/BRL). Subsequently, the sBACE1 mycHis bacmid construct was transfected into sf9 cells using CellFectin (Invitrogen, San Diego, Calif.) in order to generate recombinant baculovirus. Sf9 cells were grown in SF 900-II medium (Invitrogen) supplemented with 3% heat inactivated FBS and 0.5× penicillin/streptomycin solution (Invitrogen). Five milliliters of high titer plaque purified sBACEmyc/His virus was used to infect 1 L of logarithmically growing sf9 cells for 72 hours. Intact cells were pelleted by centrifugation at 3000×g for 15 minutes. The supernatant, containing secreted sBACE1, was collected and diluted 50% v/v with 100 mM HEPES, pH 8.0. The diluted medium was loaded onto a Q-sepharose column. The Q-sepharose column was washed with Buffer A (20 mM HEPES, pH 8.0, 50 mM NaCl).
Proteins, were eluted from the Q-sepharose column with Buffer B (20 mM HEPES, pH 8.0, 500 mM NaCl). The protein peaks from the Q-sepharose column were pooled and loaded onto a Ni-NTA agarose column. The Ni-NTA column was then washed with Buffer C (20 mM HEPES, pH 8.0, 500 mM NaCl). Bound proteins were then eluted with Buffer D (Buffer C+250 mM imidazole). Peak protein fractions as determined by the Bradford Assay (Biorad, Calif.) were concentrated using a Centricon 30 concentrator (Millipore). sBACE1 purity was estimated to be ˜90% as assessed by SDS-PAGE and Commassie Blue staining.
The inhibitor, 25 nM EuK-biotin labeled APPsw substrate (EuK-KTEEISEVNLDAEFRHDKC-biotin; CIS-Bio International, France), 5 μM unlabeled APPsw peptide (KTEEISEVNLDAEFRHDK; American Peptide Company, Sunnyvale, Calif.), 7 nM sproBACE1, 20 mM PIPES pH 5.0, 0.1% Brij-35 (protein grade, Calbiochem, San Diego, Calif.), and 10% glycerol were preincubated for 30 min at 30° C. […] HTRF measurements were made on a Packard Discovery® HTRF plate reader using 337 nm laser light to excite the sample followed by a 50 μs delay and simultaneous measurements of both 620 nm and 665 nm emissions for 400 μs.
IC50 determinations for inhibitors, (I), were determined by measuring the percent change of the relative fluorescence at 665 nm divided by the relative fluorescence at 620 nm, (665/620 ratio), in the presence of varying concentrations of I and a fixed concentration of enzyme and substrate. […]
In general terms: Time-resolved FRET reads energy transfer from a long-lived donor to a nearby acceptor.

Where [1] appears, read: read-out: Activity (IC50 classification).

pIC50: −log10 of the molar value. Read-outs that look alike come from different tables or passages of the source.

T1 sequence (P56817 22-454): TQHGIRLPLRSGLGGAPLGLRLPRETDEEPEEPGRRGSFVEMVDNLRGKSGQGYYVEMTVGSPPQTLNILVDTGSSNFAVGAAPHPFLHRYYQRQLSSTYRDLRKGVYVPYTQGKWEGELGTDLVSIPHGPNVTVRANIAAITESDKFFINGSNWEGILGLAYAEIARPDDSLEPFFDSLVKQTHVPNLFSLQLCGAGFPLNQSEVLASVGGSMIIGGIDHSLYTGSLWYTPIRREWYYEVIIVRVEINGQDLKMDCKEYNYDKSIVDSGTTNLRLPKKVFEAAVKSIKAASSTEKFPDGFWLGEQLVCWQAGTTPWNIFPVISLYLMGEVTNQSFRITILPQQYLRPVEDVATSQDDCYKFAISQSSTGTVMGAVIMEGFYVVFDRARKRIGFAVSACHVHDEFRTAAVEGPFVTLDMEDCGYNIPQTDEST

`CCCN1CCCCOc2cc(F)cc(c2)CC(C(O)C2NCCN(Cc3ccccc3)C2=O)NC(=O)c2cccc(c2)C1=O` (stereo not shown): the “Activity (IC50 classification)” value is on record as “A or B”. As to `O=C1N[C@H]([C@H](O)[C@@H]2NCCN(Cc3ccccc3)C2=O)Cc2cc(F)cc(c2)OCCCCN2CC1CC2=O` (stereo partly shown) [drawing 72], the pIC50 (as a rule, −log10 of the IC50, conventionally taken in molar units) under setting [1] is 6.00 to 8.70.

With `CCCN1CCCCOc2ccc(cc2)C[C@@H](C(O)C2NCCN(Cc3ccccc3)C2=O)NC(=O)c2cccc(c2)C1=O` (stereo partly shown), the negative logarithm of the IC50 (pIC50) under setting [1] was 5.00 to 6.00.

Turning to `O=C1N[C@H]([C@H](O)[C@@H]2NCCN(Cc3ccccc3)C2=O)Cc2cc(F)cc(c2)OCCCCN2CC1CC2=O` (stereo partly shown) [drawing 69], the negative-log IC50 (pIC50) (read-out: IC50) was 8.40.
